What all share (assay type): in vivo, Wistar rats
The subject of series [1] is peripheral blood cells. Kind of series: Alkaline comet assay, peripheral blood cells. Here is the method:
(§1) These were administered via gavage at 72 h, 48 h, 24h or 30 min before the intraperitoneal administration of saline solution or the antitumoral agent cDDP, which was used as a damage-inducing agent. The body weights of the rats were recorded daily. At 24 h after cDDP administration (5th day), the animals were euthanized for sample collection. […] The same animals were used in genotoxicity assays (micronucleus test and comet assay) and biochemical tests (GSH and TBARS), as well as for the expression analysis of the Tp53 gene. The alkaline version of the comet assay was performed according to protocols proposed by [Singh et al. (1988)] and [Tice et al. (2000)], with minor modifications (the slides were stained with GelRed, 1:10,000, Biotium-USA). To check for possible cytotoxic effects of the treatments, cell viability was determined via the Trypan blue dye exclusion method. […] Following lysis, the slides were placed in a horizontal electrophoresis unit containing 300 mM NaOH and 1 mM EDTA (pH > 13) for 20 min at an electric field strength of 0.78 V/cm (25 V and 300 mA). The slides were neutralized and stained with Gel Red (1:10,000). A total of 100 nucleoids per animal (two slides of 50 nucleoids each) were analysed at a 400x magnification using a fluorescence microscope (Axiostar, Zeiss, Germany) equipped with a 515-560 nm excitation filter, a 590 nm barrier filter and an integrated digital camera. Tail intensity (% tail DNA) was evaluated using the Comet Assay IV software (Perceptive Instruments, Suffolk, UK).

Series [2] can be described thus: Cell viability by Trypan blue dye exclusion, peripheral blood cells. To be noted: male, Wistar, rat, peripheral blood cells, oral, % in relation to saline solution group. As to the method: (§2) These were administered via gavage at 72 h, 48 h, 24h or 30 min before the intraperitoneal administration of saline solution or the antitumoral agent cDDP, which was used as a damage-inducing agent. The alkaline version of the comet assay was performed according to protocols proposed by [Singh et al. (1988)] and [Tice et al. (2000)], with minor modifications (the slides were stained with GelRed, 1:10,000, Biotium-USA). To check for possible cytotoxic effects of the treatments, cell viability was determined via the Trypan blue dye exclusion method. […] Following lysis, the slides were placed in a horizontal electrophoresis unit containing 300 mM NaOH and 1 mM EDTA (pH > 13) for 20 min at an electric field strength of 0.78 V/cm (25 V and 300 mA). The slides were neutralized and stained with Gel Red (1:10,000). A total of 100 nucleoids per animal (two slides of 50 nucleoids each) were analysed at a 400x magnification using a fluorescence microscope (Axiostar, Zeiss, Germany) equipped with a 515-560 nm excitation filter, a 590 nm barrier filter and an integrated digital camera. Tail intensity (% tail DNA) was evaluated using the Comet Assay IV software (Perceptive Instruments, Suffolk, UK).

Series [3] relates to thiobarbituric-acid-reactive substances (TBARS) in kidney tissue. Briefly: TBARS level in the kidney. Particulars: for TBARS: kidney. Here is the method:
These were administered via gavage at 72 h, 48 h, 24h or 30 min before the intraperitoneal administration of saline solution or the antitumoral agent cDDP, which was used as a damage-inducing agent. The body weights of the rats were recorded daily. At 24 h after cDDP administration (5th day), the animals were euthanized for sample collection. […] The same animals were used in genotoxicity assays (micronucleus test and comet assay) and biochemical tests (GSH and TBARS), as well as for the expression analysis of the Tp53 gene. TBARS measurements in kidney tissue were performed according to [Buege and Aust (1978)]. A 0.5 mL aliquot of the homogenate was added to 1 mL of thiobarbituric acid solution (containing 15% trichloroacetic acid and 0.25 M HCl) to a final concentration of […]. This mixture was warmed in a water bath for 15 min and centrifuged for 20 min at 180 x g. The absorbance of the supernatant was determined at 535 nm (UV-VisB582 Micronal spectrophotometer), and the results were expressed as nmol TBARS/mg protein. […] The quantification of total proteins was done at 650 nm (RayLeigh UV-1601 spectrophotometer) using Lowry’s method ([Hartree, 1972]).

A further series has as its system bone marrow erythrocytes. Kind of series: Micronucleus test in bone marrow. As to the method:
These were administered via gavage at 72 h, 48 h, 24h or 30 min before the intraperitoneal administration of saline solution or the antitumoral agent cDDP, which was used as a damage-inducing agent. The body weights of the rats were recorded daily. At 24 h after cDDP administration (5th day), the animals were euthanized for sample collection. […] The same animals were used in genotoxicity assays (micronucleus test and comet assay) and biochemical tests (GSH and TBARS), as well as for the expression analysis of the Tp53 gene. The micronucleus test was performed according to the protocol described by [Schmid (1975)]. Bone marrow cells were harvested from rat femurs, mixed with fetal bovine serum, homogenized and centrifuged, and the pellet was resuspended for slide preparations. The slides were then fixed, stained with Giemsa solution and coded. Three slides were produced for each animal. Coded slides were scored under 1000X magnification using a light microscope (Zeiss).

The nature of series [4]: Variation in body mass and relative mass of the kidney. Here is the method:
Male Wistar albino rats, at 5-6 weeks of age and weighing approximately 160 g were obtained from the Animal Facility of the Ribeirão Preto Campus of the University of São Paulo. The animals were divided into 12 groups of six for each treatment. The experimental protocols applied in this study were approved by the Local Ethics Committee for Animal Use (CEUA) of Ribeirão Preto, Brazil, Register No.08.1.1417.53.2. […] These were administered via gavage at 72 h, 48 h, 24h or 30 min before the intraperitoneal administration of saline solution or the antitumoral agent cDDP, which was used as a damage-inducing agent. The body weights of the rats were recorded daily. At 24 h after cDDP administration (5th day), the animals were euthanized for sample collection. […] The same animals were used in genotoxicity assays (micronucleus test and comet assay) and biochemical tests (GSH and TBARS), as well as for the expression analysis of the Tp53 gene.

Series [5] can be described thus: Cell viability by Trypan blue dye exclusion, kidney cells. Particulars: male, Wistar, rat, kidney cells, oral, % in relation to saline solution group. As to the method: as §2
The next series deals with Tp53 mRNA. Briefly: Quantification of Tp53 mRNA in kidney tissue (RT-qPCR). To be noted: 50 mg/kg b.w. together with cDDP 6 mg/kg b.w. Here is the method: These were administered via gavage at 72 h, 48 h, 24h or 30 min before the intraperitoneal administration of saline solution or the antitumoral agent cDDP, which was used as a damage-inducing agent. Total RNA was extracted from kidney tissue using the SV Total Isolation System kit (Promega, Madison, WI, USA), according the manufacturer's instructions. […] The extracted RNA was converted to cDNA using the SuperScriptTM III kit (Invitrogen, Carlsbad, CA, USA), and RT-qPCR was performed in a CFX96 Real-Time PCR Detection System (Bio-Rad, CA, USA) using the Bio-Rad Real-Time PCR system with ABsoluteTM QPCR SYBR1 Green Mix (Invitrogen, Carlsbad, CA, USA), where fluorescence detection was performed following each annealing/extension cycle. The following reference genes were tested for suitability: b-actin (b-actin-forward: […] reverse: […] (GAPDH-forward: […]-reverse: [NT] and […]-forward: […]-reverse [NT] Based on stability, we selected b-actin as the endogenous control gene for RT-qPCR. Gene-specific primers for Tp53 (Tp53-forward: [NT]; Tp53-reverse: […] Louis, MO, USA). RT-qPCR efficiencies for Tp53 and b-actin were satisfactory, and the relative expression of Tp53 mRNA was normalized to the amount of b-actin using the method of relative 2^-ΔΔCt quantification described by [Livak and Schmittgen (2001)].
Background: In qPCR the cycle at which signal appears reflects the starting amount.

The subject of series [6] is reduced glutathione (GSH) in kidney tissue. Briefly: GSH level in the kidney. To be noted: for GSH: kidney. Here is the method: These were administered via gavage at 72 h, 48 h, 24h or 30 min before the intraperitoneal administration of saline solution or the antitumoral agent cDDP, which was used as a damage-inducing agent. The body weights of the rats were recorded daily. At 24 h after cDDP administration (5th day), the animals were euthanized for sample collection. […] The same animals were used in genotoxicity assays (micronucleus test and comet assay) and biochemical tests (GSH and TBARS), as well as for the expression analysis of the Tp53 gene. GSH concentrations in kidney tissue were determined according to method described by [Sedlak and Lindsay (1968)]. […] A 2.0 mL volume of Tris-EDTA buffer (0.2 M, pH 8.9) and 0.1 mL of 5,5 ‘-dithio-bis-2-nitrobenzoic acid (DTNB) in 0.01 M methanol were added to a 0.5 mL aliquot of the supernatant. The samples were maintained at room temperature for 15 min and then read at 412 nm (RayLeigh UV-1601 spectrophotometer). Standard curves were prepared using α-cysteine, and results were expressed as nmol GSH/g protein. The quantification of total proteins was done at 650 nm (RayLeigh UV-1601 spectrophotometer) using Lowry’s method ([Hartree, 1972]).

Series [7] deals with kidney cells. Kind of series: Alkaline comet assay, kidney cells. Here is the method:
as §1

Series [8] deals with peripheral blood cells. Briefly: Cell viability by Trypan blue dye exclusion, peripheral blood cells. Particulars: % in relation to saline solution group; GLA gavage + cDDP 6 mg/kg b.w. i.p. Here is the method: as §2
The subject of series [9] is kidney cells. Briefly: Cell viability by Trypan blue dye exclusion, kidney cells. To be noted: % in relation to saline solution group; GLA gavage + cDDP 6 mg/kg b.w. i.p. Here is the method:
as §2

Where [10] appears, read: 50 mg/kg b.w. gavage x4 + cDDP 6 mg/kg b.w. i.p.
[11] abbreviates: 50 mg/kg b.w. gavage x4 + i.p. saline.
The mark [12] stands for this setting: 50 mg/kg b.w. gavage x4 + cDDP 6 mg/kg b.w. i.p., 24 h.
Where [13] appears, read: GLA gavage + cDDP 6 mg/kg b.w. i.p.
Setting [14] is: GLA gavage + cDDP 6 mg/kg b.w. i.p., 24 h.

These results are taken from publication PMC4763312, “Comparative study of curcumin and curcumin formulated in a solid dispersion: Evaluation of their antigenotoxic effects” (Genetics and Molecular Biology, 2015).

For `COc1cc(C=CC(=O)CC(=O)C=Cc2ccc(O)c(OC)c2)ccc1O` [CMN, 1,7-bis[4-hydroxy 3-methoxyphenyl]-1,6-heptadiene-3,5-dione], the results for the “% tail DNA, peripheral blood” value in the series on peripheral blood cells [1] (setting [10]) and in the series on peripheral blood cells [1] (setting [11]) were 2.1 ± 0.6% and 3.2 ± 0.9%, respectively. The viability at 24 h in series [2] (setting [10]) was 99.2 ± 0.7%; in [2] (setting [11]), 98.7 ± 0.5%; in [5] (setting [10]), 88.5 ± 2.2%; in series [5] (setting [11]), 89 ± 2.3%. The “TBARS concentration in renal tissue (in words)” value in series [3] (administered alone) is reported as “did not alter”. Also, the TBARS is on record as 0.222 ± 0.064 nmol/mg protein in [3] (setting [12]) and 0.236 ± 0.018 nmol/mg protein in series [3] (setting [11]). Besides, the “TBARS levels, administered together with cDDP (in words)” value in [3] (with cDDP 6 mg/kg b.w., p > 0.05 vs saline solution group) is “able to maintain the TBARS levels observed in the saline solution group”. In addition, the “Frequency of micronucleated polychromatic erythrocytes, MNPCEs/1000 PCEs” value with bone marrow erythrocytes (setting [10]) is 7.08 ± 3.04 ^# MNPCEs/1000 PCEs; in the series with bone marrow erythrocytes (setting [11]), 1.91 ± 1.27 MNPCEs/1000 PCEs. Further, the “Formation of cDDP-induced micronuclei (in words)” value with bone marrow erythrocytes (CMN SD 5, 25 and 50 mg/kg b.w., unmodified CMN 50 mg/kg b.w., p < 0.05) is reported as “significantly reduced”. Moreover, the “Body weight variation, interval 2 (day 4 to 5)” value in [4] (setting [10]) came out at 0.1 ± 2.5 g; in series [4] (setting [11]), 8.2 ± 2.4 g. For the same molecule, the figures for the Kidney/body weight in series [4] (setting [10]) and in series [4] (setting [11]) were 0.90 ± 0.06% and 0.96 ± 0.05%, respectively. Further, the “Body weight variation, interval 1 (days 1 to 4)” value in series [4] (50 mg/kg b.w. gavage x4 + cDDP 6 mg/kg b.w. i.p. group) is 31.8 ± 4.7 g; in series [4] (setting [11]), 31.7 ± 6.6 g. Further, the “Reduction of body weight gain triggered by cDDP (in words)” value in [4] (combined application with cDDP) is given as “did not alter the reduction of body weight gain”. For the same molecule, the “Tp53 expression compared to saline solution group” value in the series with Tp53 mRNA is reported as “up-regulated”. The “GSH concentration in renal tissue (in words)” value in series [6] (administered alone) was “did not alter”. Moreover, the GSH in series [6] (setting [12]) is listed as 17.0 ± 1.4 nmol/mg protein; in series [6] (setting [11]) it was 14.4 ± 1.2 nmol/mg protein. Moreover, the “% tail DNA, kidney” value in the series on kidney cells [7] (setting [10]) was found to be 4.0 ± 0.8%; in the series on kidney cells [7] (setting [11]) it was 5.5 ± 2.8%. Also, the “Comet assay, in association with cDDP compared to cDDP-only group (in words)” value in the series on kidney cells [7] (with cDDP 6 mg/kg b.w.) is “did not induce significant alterations”.

With `[NH2][Pt]([NH2])([Cl])[Cl]` [cDDP, Cisplatin], the “% tail DNA, peripheral blood” value with peripheral blood cells [1] (setting [13]) was 2.2 ± 0.8%. Besides, in the series on peripheral blood cells [8], the “Cell viability, peripheral blood” value is 98.8 ± 0.7%. The TBARS in series [3] (setting [14]) is given as 0.286 ± 0.014 nmol/mg protein. Also, in the series with bone marrow erythrocytes (setting [13]), the “Frequency of micronucleated polychromatic erythrocytes, MNPCEs/1000 PCEs” value is 12.75 ± 3.32 MNPCEs/1000 PCEs. Besides, the “PCE/(PCE + NCE) ratio” value in the series with bone marrow erythrocytes (in 500 erythrocytes, GLA gavage + cDDP 6 mg/kg b.w. i.p.) turned out to be 44.8 ± 4.9%. Further, in [4] (setting [13]), the “Body weight variation, interval 2 (day 4 to 5)” value is 0.8 ± 2.2 g and the Kidney/body weight was 1.02 ± 0.11%. In addition, the “Body weight variation, interval 1 (days 1 to 4)” value in [4] (GLA gavage + cDDP 6 mg/kg b.w. i.p. group) came to 27.5 ± 6.1 g. Also, the “Cell viability, kidney” value with kidney cells [9] was found to be 86.5 ± 3.1%. Moreover, the GSH in [6] (setting [14]) came to 18.5 ± 0.6 nmol/mg protein. For the same molecule, the “% tail DNA, kidney” value in the series on kidney cells [7] (setting [13]) is 3.8 ± 0.7 %.

As a reminder, the viability is a per cent measure of how many cells are alive, often set against a control.
